According to paper PMC8819633 (Journal of medicinal chemistry, 2021):

Columns and labels:
[1] = system: MDA-MB-468 cells; test: Cell proliferation assay; assay type: cell-based, human; details: 5 days
[2] = 50 mg/kg
[3] = system: MDA-MB-468 cells; test: Apoptosis assay; assay type: cell-based, human; details: MDA-MB-468 cells (Figure S5)
[4] = system: PC3 cells; test: Cell proliferation assay; assay type: cell-based, human; details: 5 days
[5] = system: total AKT (T-AKT) and phosphorylated AKT (P-AKT (S473)); test: Western blot of AKT degradation in BT474 cells; assay type: cell-based, human
[6] = system: T-AKT and P-AKT (S473); test: Western blot of AKT degradation in PC3 cells; assay type: cell-based, human
[7] = system: P-PRAS40 (T246) and P-S6 (S240/244); test: Western blot of downstream signaling inhibition in BT474 cells; assay type: cell-based, human
[8] = system: T-AKT and P-AKT; test: Competition; assay type: cell-based, human; details: BT474, then degrader 22 h
[9] = assay type: in vivo; details: mice, single IP injection, 50 mg/kg

Cc1ncsc1-c1ccc([C@H](C)NC(=O)[C@@H]2C[C@@H](O)CN2C(=O)[C@@H](NC(=O)CCCCCCCCCCC(=O)NCCNC[C@@H](C(=O)N2CCN(c3ncnc4c3[C@H](C)C[C@H]4O)CC2)c2ccc(Cl)cc2)C(C)(C)C)cc1 [Compound 13, N^1-(2-(((S)-2-(4-Chlorophenyl)-3-(4-((5R,7R)-7-hydroxy-5-methyl-6,7-dihydro-5H-cyclopenta[d]pyrimidin-4-yl)piperazin-1-yl)-3-oxopropyl)amino)ethyl)-N^12-((S)-1-((2S,4R)-4-hydroxy-2-(((S)-1-(4-(4-methylthiazol-5-yl)phenyl)ethyl)carbamoyl)pyrrolidin-1-yl)-3,3-dimethyl-1-oxobutan-2-yl)dodecanediamide]
growth inhibition [1]: comparable potencies to GDC-0068 and INY-03–041
time of Cmax ([2]; male Swiss albino mice, single IP injection): 2 h
plasma concentrations over 8 h ([2]; mouse, in vivo, ip): above 3 μM
apoptosis induced [3]: ≤ 3%
growth inhibition [4]: comparable potencies to GDC-0068 and INY-03–041
duration of T-AKT and P-AKT degradation ([5]; 1 μM): at least 24 h
time course of T-AKT and P-AKT degradation ([5]; 1 μM, indicated times): Obvious degradation occurred at 4 h, and near-complete degradation was achieved at 8 h
T-AKT and P-AKT protein degradation (western blot) ([5]; 24 h, 1, 5 and 10 μM (12-13: 1, 3 and 10 μM)): remarkable effects on degrading T-AKT and P-AKT
hook effect in AKT degradation ([5]; 24 h, higher concentrations (up to 10 μM)): less ″hook effect″ than 12
extent of T-AKT degradation in concentration-response ([5]; 24 h, indicated concentrations): near-complete depletion of T-AKT at 1 μM
hook effect in concentration-response ([5]; concentrations up to 10 μM): No ″hook effect″ was observed
AKT degradation, concentration-response [6]: effectively induced AKT degradation in a concentration-dependent manner
kinetics of downstream signaling inhibition ([7]; 1 μM, vs GDC-0068): not as rapid as that induced by GDC-0068
inhibition of downstream signaling, P-PRAS40 and P-S6 ([7]; 24 h, compared with GDC-0068 (1 μM)): more profound inhibition of P-PRAS40 and P-S6 than 11
effect of GDC-0068 pretreatment on degrader-induced AKT degradation ([8]; 2 h pretreatment with GDC-0068 (1 μM)): blocked the AKT degradation induced by 13
effect of MG132 pretreatment on degrader-induced AKT degradation ([8]; 2 h pretreatment with MG132 (10 μM)): completely prevented 13-mediated degradation of T-AKT and P-AKT and inhibition of P-PRAS40
effect of MLN4924 pretreatment on degrader-induced AKT degradation ([8]; 2 h pretreatment with MLN4924 (1 μM)): completely prevented 13-mediated degradation of T-AKT and P-AKT and inhibition of P-PRAS40
tolerability [9]: well tolerated
